Source: publication PMC8715118, “Assessing potentiation of the (α4)3(β2)2 nicotinic acetylcholine receptor by the allosteric agonist CMPI” (The Journal of Biological Chemistry, 2021)
Like-named read-outs stand apart in the source and are kept apart here.

Key:
(α4)3(β2)2 nAChR [1] = biological target: T1, (α4)3(β2)2 nAChR (Homo sapiens, UniProt P17787+P43681); assay: Two-electrode voltage-clamp whole-cell currents, Xenopus oocytes expressing WT (α4)3(β2)2 nAChR; type: cell-based
T1 construct: expressed in transfected cells; host or cells: Xenopus laevis oocytes injected with cRNA, 8:1 α4:β2
Protocol: (§1) Oocytes-positive female Xenopus laevis were purchased from NASCO, and all procedures were performed according to an animal use protocol approved by the Institutional Animals Care and Use Committee of The University of Texas Health Science Center at Tyler. Ovarian lobules were surgically harvested, treated with collagenase type 2, and Stage V and VI oocytes were visually selected and maintained at 18 °C in modified ND96-gentamicin buffer (96 mM NaCl, 2 mM KCl, 1.8 mM CaCl2, 1 mM MgCl2, 5 mM Hepes, and 50 μg/ml gentamicin, pH 7.6).
(§2) pSP64 Poly(A) plasmids with cDNA encoding for human α4 or β2 nAChR subunit were used to prepare cRNA transcripts suitable for oocyte expression. The plasmids were linearized with AseI (hα4) and PvuII (hβ2), then cRNA transcripts were prepared in vitro using mMESSAGE mMACHINE high yield-capped RNA transcription kits (Ambion, Thermo Fisher Scientific), purified on NucAway Spin column (Invitrogen, Thermo Fisher Scientific), and stored at −80 °C until used. Point mutations within the plasmid encoding the α4 nAChR subunit were introduced using QuikChange II Site-Directed Mutagenesis Kit (Agilent Technologies), as described previously ([28]). To generate amino acid substitutions (K64T, E66I, H116V, H116L, and H116A), two custom-designed complementary oligos containing the desired mutation were used (Integrated DNA Technologies). The forward primers were as the following with the codon for mutated amino acids are underlined and nucleotide(s) changes are bolded and italicized:
(§3) The oocytes were injected with 10 to 50 ng of a cRNA mix containing α4 (WT or mutant) and β2 RNAs at ratios of 8:1(α4:β) or 1:8 (α4:β2) to bias expression toward (α4)3(β2)2 or (α4)2(β2)3 nAChRs, respectively. The injection of oocytes with RNAs mixture containing four folds or higher α4 RNA than β2 RNA have been established to express receptor population that is made up of three α4 and two β2 subunits ([9], [12], [28], [43], [44], [45]).
(§4) 24 to 72 h after cRNA injection, Xenopus oocytes were placed in a custom-made recording chamber that is connected to an eight-channel automated perfusion system (Warner Instruments) and perfused with recording buffer (100 mM NaCl, 2 mM KCl, 1 mM CaCl2, 0.8 mM MgCl2, 1 mM EGTA, and 10 mM Hepes, pH 7.5). Unless otherwise specified in figure legends, each recording run included several drug applications (10 s of an agonist with or without CMPI or NS9283) separated by 3 to 4 min buffer wash intervals. Between recording runs, the oocytes were washed with recording buffer for at last 5 min. The oocytes were voltage-clamped at −50 mV using Oocyte Clamp OC-725B (Warner Instruments). The currents were digitized using Digidata 1550A (Axon Instruments, Molecular Devices), and the peak currents were quantified using pCLAMP 10 (Axon Instruments), then normalized and analyzed using Excel 2010 (Microsoft) and SigmaPlot 11.0 (Systat Software). For NS9283 and CMPI potentiation of agonist-induced responses, the peak currents were normalized to current elicited by agonist alone applied within the same recording run. For the effect of coapplication of 1 μM NS9283 or CMPI on agonist concentration-response curve, the peak currents were normalized to current elicited by saturating concentration of agonist applied within the same recording run. […] I0 = 100 for NS9283 and CMPI potentiation of agonist-induced responses and I0 = 0 for agonist concentration-response experiments. The best-fit values for Imax and EC50 ± SD are presented.

(α4H116A)3(β2)2 nAChR [2] = biological target: T2, (α4H116A)3(β2)2 nAChR (Homo sapiens, UniProt P17787+P43681, H142A); assay: Two-electrode voltage-clamp, oocytes expressing (α4H116A)3(β2)2 nAChR; type: cell-based
T2 construct: expressed in transfected cells; host or cells: Xenopus laevis oocytes injected with cRNA, 8:1 α4:β2
Protocol: as §1, §2, §3, §4

(α4K64T)3(β2)2 nAChR = biological target: T3, (α4K64T)3(β2)2 nAChR (Homo sapiens, UniProt P17787+P43681, K90T); assay: Two-electrode voltage-clamp, oocytes expressing (α4K64T)3(β2)2 nAChR; type: cell-based
T3 construct: expressed in transfected cells; host or cells: Xenopus laevis oocytes injected with cRNA, 8:1 α4:β2
Protocol: as §1, §2, §3
(§5) 24 to 72 h after cRNA injection, Xenopus oocytes were placed in a custom-made recording chamber that is connected to an eight-channel automated perfusion system (Warner Instruments) and perfused with recording buffer (100 mM NaCl, 2 mM KCl, 1 mM CaCl2, 0.8 mM MgCl2, 1 mM EGTA, and 10 mM Hepes, pH 7.5). Unless otherwise specified in figure legends, each recording run included several drug applications (10 s of an agonist with or without CMPI or NS9283) separated by 3 to 4 min buffer wash intervals. Between recording runs, the oocytes were washed with recording buffer for at last 5 min. […] The currents were digitized using Digidata 1550A (Axon Instruments, Molecular Devices), and the peak currents were quantified using pCLAMP 10 (Axon Instruments), then normalized and analyzed using Excel 2010 (Microsoft) and SigmaPlot 11.0 (Systat Software). […]

(α4E66I)3(β2)2 nAChR = biological target: T4, (α4E66I)3(β2)2 nAChR (Homo sapiens, UniProt P17787+P43681, E92I); assay: Two-electrode voltage-clamp, oocytes expressing (α4E66I)3(β2)2 nAChR; type: cell-based
T4 construct: expressed in transfected cells; host or cells: Xenopus laevis oocytes injected with cRNA, 8:1 α4:β2
Protocol: as §1, §2, §3, §5

(α4H116L)3(β2)2 nAChR = biological target: T5, (α4H116L)3(β2)2 nAChR (Homo sapiens, UniProt P17787+P43681, H142L); assay: Two-electrode voltage-clamp, oocytes expressing (α4H116L)3(β2)2 nAChR; type: cell-based
T5 construct: expressed in transfected cells; host or cells: Xenopus laevis oocytes injected with cRNA, 8:1 α4:β2
Protocol: as §1, §2, §3, §5

(α4H116A)3(β2)2 nAChR [3] = biological target: T2, (α4H116A)3(β2)2 nAChR; assay: Mechanistic (Monod-Wyman-Changeux two-state model) analysis of current responses, (α4H116A)3(β2)2 nAChR; type: cell-based; conditions: α4:α4 site; for Kd: read-out: KR,CMPI
Protocol: Further analysis of electrophysiological data was conducted in the framework of the two-state concerted transition model, adapted from the MWC cyclic model originally used to describe enzyme function ([31], [32], [33]). The raw peak amplitudes of current responses were converted to units of probability of being in the active state (PA).
The numbers of α4:β2 and α4:α4 binding sites (Nα4:β2 and Nα4:α4) were constrained to 2 and 1, respectively.
The concentration-response curve for TC-2559 was fitted to the following equation:(3) PA=1/1+L[1+[TC-2559]/KR,TC-2559,α4:β2/1+[TC-2559]/(KR,TC-2559,α4:β2cTC-2559,α4:β2)]^Nα4:β2
The concentration-response data were analyzed using Equation 3, with the value of L modified to reflect receptor activation by TC-2559, and the affinity and efficacy terms in the equation reflecting the values for CMPI. The number of binding sites for CMPI in Equation 3 was constrained to 1.
Curve fitting was done using Origin 2020 (OriginLab Corp). The results are reported as best-fit parameter ±SD of the fit. All data are included in the analysis.

(α4)3(β2)2 nAChR [4] = biological target: T1, (α4)3(β2)2 nAChR; conditions: cited from earlier work
[5] = background of activity elicited by ACh
[6] = background of activity elicited by TC-2559

T2 sequence (P43681 27-627 H142A): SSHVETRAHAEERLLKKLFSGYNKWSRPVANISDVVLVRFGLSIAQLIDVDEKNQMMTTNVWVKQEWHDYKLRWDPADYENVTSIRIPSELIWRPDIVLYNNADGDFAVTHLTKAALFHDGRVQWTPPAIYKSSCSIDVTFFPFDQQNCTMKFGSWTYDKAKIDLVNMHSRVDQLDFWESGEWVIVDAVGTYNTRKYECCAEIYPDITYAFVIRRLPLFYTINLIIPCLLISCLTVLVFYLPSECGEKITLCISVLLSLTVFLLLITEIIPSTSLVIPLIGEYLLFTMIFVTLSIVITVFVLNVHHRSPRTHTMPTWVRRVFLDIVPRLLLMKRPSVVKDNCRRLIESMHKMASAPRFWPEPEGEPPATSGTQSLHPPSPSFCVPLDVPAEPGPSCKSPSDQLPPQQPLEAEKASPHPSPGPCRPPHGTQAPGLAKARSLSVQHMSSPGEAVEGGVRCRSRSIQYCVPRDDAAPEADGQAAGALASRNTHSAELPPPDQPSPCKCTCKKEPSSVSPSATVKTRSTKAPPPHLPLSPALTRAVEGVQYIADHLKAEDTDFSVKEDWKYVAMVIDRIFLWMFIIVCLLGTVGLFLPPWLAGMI
T2 sequence (P17787 26-502): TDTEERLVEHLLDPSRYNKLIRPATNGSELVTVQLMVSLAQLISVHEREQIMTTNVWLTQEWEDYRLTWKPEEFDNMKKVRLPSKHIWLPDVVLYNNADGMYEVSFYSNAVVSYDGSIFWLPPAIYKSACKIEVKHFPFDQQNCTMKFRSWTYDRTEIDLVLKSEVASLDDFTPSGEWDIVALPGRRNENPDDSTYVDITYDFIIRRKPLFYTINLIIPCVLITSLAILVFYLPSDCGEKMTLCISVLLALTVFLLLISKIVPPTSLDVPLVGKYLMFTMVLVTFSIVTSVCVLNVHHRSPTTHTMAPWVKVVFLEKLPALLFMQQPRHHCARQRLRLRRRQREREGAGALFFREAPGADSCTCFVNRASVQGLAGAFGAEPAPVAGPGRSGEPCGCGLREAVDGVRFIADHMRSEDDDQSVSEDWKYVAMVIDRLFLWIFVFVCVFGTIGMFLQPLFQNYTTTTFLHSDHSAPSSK
T1 sequence (P43681 27-627): as the sequence (P43681 27-627 H142A) above, with A116H counted along it
T1 sequence (P17787 26-502): as the sequence (P17787 26-502) above
T3 sequence (P43681 27-627 K90T): as the sequence (P43681 27-627 H142A) above, with K64T, A116H counted along it
T3 sequence (P17787 26-502): as the sequence (P17787 26-502) above
T5 sequence (P43681 27-627 H142L): as the sequence (P43681 27-627 H142A) above, with A116L counted along it
T5 sequence (P17787 26-502): as the sequence (P17787 26-502) above
T4 sequence (P43681 27-627 E92I): as the sequence (P43681 27-627 H142A) above, with E66I, A116H counted along it
T4 sequence (P17787 26-502): as the sequence (P17787 26-502) above

maximal potentiation ((α4)3(β2)2 nAChR [1]; 1 μM TC-2559): 880 ± 13%
maximal potentiation equivalent, % of current elicited by 1 mM ACh ((α4)3(β2)2 nAChR [1]; 1 μM TC-2559 + CMPI): 44.6%
maximal potentiation, % of control ((α4)3(β2)2 nAChR [1]; 1 μM cytisine): 716 ± 59%
effect on responses to agonists at subsaturating concentrations ((α4)3(β2)2 nAChR [1]; 1 μM modulator, ACh, nicotine, cytisine, TC-2559, p < 0.001): potentiated
effect on responses to saturating concentrations of the tested agonists ((α4)3(β2)2 nAChR [1]; 1 μM modulator, except for TC-2559): did not potentiate
maximal potentiation, % of control ((α4)3(β2)2 nAChR [1]; 1 μM nicotine): 618 ± 34%
maximal potentiation ((α4)3(β2)2 nAChR [1]; 10 μM TC-2559): 634 ± 94%
maximal potentiation equivalent, % of current elicited by 1 mM ACh ((α4)3(β2)2 nAChR [1]; 10 μM TC-2559 + CMPI): 48.4%
potentiation fold (Ave ± SD), agonist + 1 μM modulator / agonist alone ((α4)3(β2)2 nAChR [1]; ACh (1 mM), 1 μM modulator): 0.81 ± 0.15
potentiation fold (Ave ± SD), agonist + 1 μM modulator / agonist alone ((α4)3(β2)2 nAChR [1]; TC 2559 (30 μM), 1 μM modulator): 6.41 ± 2.15
EC50 ((α4)3(β2)2 nAChR [1]; receptors activated by 1 μM cytisine, read-out: EC50 for potentiation): 340 ± 80 nM
EC50 ((α4)3(β2)2 nAChR [1]; receptors activated by 1 μM nicotine, read-out: EC50 for potentiation): 270 ± 40 nM
EC50 ((α4)3(β2)2 nAChR [1]; responses induced by 1 μM TC-2559, read-out: potentiation EC50): 110 ± 10 nM
EC50 ((α4)3(β2)2 nAChR [1]; responses induced by 10 μM TC-2559, read-out: potentiation EC50): 90 ± 40 nM
potentiation fold (Ave ± SD), agonist + 1 μM modulator / agonist alone ((α4H116A)3(β2)2 nAChR [2]; ACh (1 mM)): 1.07 ± 0.13
potentiation fold (Ave ± SD), agonist + 1 μM modulator / agonist alone ((α4H116A)3(β2)2 nAChR [2]; TC 2559 (30 μM)): 0.74 ± 0.13
Imax of potentiation, % of control ((α4H116A)3(β2)2 nAChR [2]; TC-2559-induced current, normalized to 1 μM TC-2559): 634 ± 77%
EC50 ((α4H116A)3(β2)2 nAChR [2]; normalized to 1 μM TC-2559, read-out: EC50 of potentiation of TC-2559-induced current): 200 ± 100 nM
potentiation fold (Ave ± SD), agonist + 1 μM modulator / agonist alone ((α4K64T)3(β2)2 nAChR; ACh (1 mM)): 0.91 ± 0.08
potentiation fold (Ave ± SD), agonist + 1 μM modulator / agonist alone ((α4K64T)3(β2)2 nAChR; TC 2559 (30 μM)): 1.17 ± 0.21
potentiation fold (Ave ± SD), agonist + 1 μM modulator / agonist alone ((α4E66I)3(β2)2 nAChR; ACh (1 mM)): 0.83 ± 0.10
potentiation fold (Ave ± SD), agonist + 1 μM modulator / agonist alone ((α4E66I)3(β2)2 nAChR; TC 2559 (30 μM)): 0.99 ± 0.15
potentiation fold (Ave ± SD), agonist + 1 μM modulator / agonist alone ((α4H116L)3(β2)2 nAChR; ACh (1 mM)): 0.82 ± 0.05
potentiation fold (Ave ± SD), agonist + 1 μM modulator / agonist alone ((α4H116L)3(β2)2 nAChR; TC 2559 (30 μM)): 4.58 ± 0.24
cCMPI ((α4H116A)3(β2)2 nAChR [3]; [5]): 0.082 ± 0.007
Kd ((α4H116A)3(β2)2 nAChR [3]; [5]): 440 ± 120 nM
cCMPI ((α4H116A)3(β2)2 nAChR [3]; [6]): 0.099 ± 0.009
Kd ((α4H116A)3(β2)2 nAChR [3]; [6]): 230 ± 80 nM
Compound: Cc1c(-c2cc(-c3ccccc3Cl)no2)cnn1C1CCNCC1 [CMPI, 3-(2-chlorophenyl)-5-(5-methyl-1-(piperidin-4-yl)-1H-pyrrazol-4-yl)isoxazole]
left-shift of the ACh concentration-response curve ((α4)3(β2)2 nAChR [4]; CMPI at 1 μM): ~100 fold
direct activation of the α4β2 receptor ((α4)3(β2)2 nAChR [4]): very weak direct activator
current responses to EC10 (10 μM) ACh with coapplied CMPI, % of control ((α4)3(β2)2 nAChR [4]; maximal potentiation, 10 μM ACh): 386 ± 15%
EC50 ((α4)3(β2)2 nAChR [4]; potentiation of 10 μM ACh response): 180 ± 30 nM
